According to patent US20230117470A1, “SUBSTITUTED PYRAZOLE COMPOUNDS AS TOLL RECEPTOR INHIBITORS” (BRISTOL-MYERS SQUIBB COMPANY, priority 2019, published 2023):

Columns and labels:
Assay type in all cases: cell-based
[1] = biological target: T1, human TLR8 (Homo sapiens, UniProt Q9NR97); assay: TLR8 inhibition reporter assay (HEK-Blue cells, SEAP reporter, R848 stimulation); conditions: HEK-Blue cells overexpressing human TLR8, SEAP reporter, R848 15.9 μM
T1 construct: host or cells: HEK-Blue cells
T1 sequence (Q9NR97 27-1041): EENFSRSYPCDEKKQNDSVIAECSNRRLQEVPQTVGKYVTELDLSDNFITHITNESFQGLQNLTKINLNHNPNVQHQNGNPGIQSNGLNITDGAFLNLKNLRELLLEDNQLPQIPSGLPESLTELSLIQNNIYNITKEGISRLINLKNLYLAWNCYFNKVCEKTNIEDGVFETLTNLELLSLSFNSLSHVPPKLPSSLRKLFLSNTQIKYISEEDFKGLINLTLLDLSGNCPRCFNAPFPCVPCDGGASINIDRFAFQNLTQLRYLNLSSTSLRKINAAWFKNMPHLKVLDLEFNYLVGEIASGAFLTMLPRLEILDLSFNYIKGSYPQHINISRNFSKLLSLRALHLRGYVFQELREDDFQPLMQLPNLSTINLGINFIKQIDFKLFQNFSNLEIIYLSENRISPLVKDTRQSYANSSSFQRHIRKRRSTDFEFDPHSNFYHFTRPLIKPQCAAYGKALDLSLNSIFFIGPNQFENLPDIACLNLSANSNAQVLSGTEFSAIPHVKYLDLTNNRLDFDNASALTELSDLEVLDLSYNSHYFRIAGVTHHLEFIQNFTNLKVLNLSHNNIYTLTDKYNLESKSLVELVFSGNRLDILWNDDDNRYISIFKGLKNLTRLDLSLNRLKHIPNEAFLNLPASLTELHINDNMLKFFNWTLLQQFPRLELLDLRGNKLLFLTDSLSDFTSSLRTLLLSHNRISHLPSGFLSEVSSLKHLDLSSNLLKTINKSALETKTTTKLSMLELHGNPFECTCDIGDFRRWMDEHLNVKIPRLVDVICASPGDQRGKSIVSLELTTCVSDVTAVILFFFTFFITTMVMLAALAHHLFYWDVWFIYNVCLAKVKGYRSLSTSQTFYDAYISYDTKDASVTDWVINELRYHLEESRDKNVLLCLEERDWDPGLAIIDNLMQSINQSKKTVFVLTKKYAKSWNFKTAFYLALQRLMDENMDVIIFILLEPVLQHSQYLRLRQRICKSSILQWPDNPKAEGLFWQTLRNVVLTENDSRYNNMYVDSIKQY
Method in brief: (§1)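 Cells were pre-treated 30 min at room temperature with compound (final 0.05 nM–50 μM), then stimulated with gardiquimod 7.5 μM (TLR7), R848 15.9 μM (TLR8) or ODN2006 5 nM (TLR9). SEAP was read after 22 h at 37° C; percent inhibition scaled between agonist+DMSO and known-inhibitor wells.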

[2] = biological target: T2, human TLR9 (Homo sapiens, UniProt Q9NR96); assay: TLR9 inhibition reporter assay (HEK-Blue cells, SEAP reporter, ODN2006 stimulation); conditions: HEK-Blue cells overexpressing human TLR9, SEAP reporter, ODN2006 5 nM
T2 construct: host or cells: HEK-Blue cells
T2 sequence (Q9NR96 26-1032): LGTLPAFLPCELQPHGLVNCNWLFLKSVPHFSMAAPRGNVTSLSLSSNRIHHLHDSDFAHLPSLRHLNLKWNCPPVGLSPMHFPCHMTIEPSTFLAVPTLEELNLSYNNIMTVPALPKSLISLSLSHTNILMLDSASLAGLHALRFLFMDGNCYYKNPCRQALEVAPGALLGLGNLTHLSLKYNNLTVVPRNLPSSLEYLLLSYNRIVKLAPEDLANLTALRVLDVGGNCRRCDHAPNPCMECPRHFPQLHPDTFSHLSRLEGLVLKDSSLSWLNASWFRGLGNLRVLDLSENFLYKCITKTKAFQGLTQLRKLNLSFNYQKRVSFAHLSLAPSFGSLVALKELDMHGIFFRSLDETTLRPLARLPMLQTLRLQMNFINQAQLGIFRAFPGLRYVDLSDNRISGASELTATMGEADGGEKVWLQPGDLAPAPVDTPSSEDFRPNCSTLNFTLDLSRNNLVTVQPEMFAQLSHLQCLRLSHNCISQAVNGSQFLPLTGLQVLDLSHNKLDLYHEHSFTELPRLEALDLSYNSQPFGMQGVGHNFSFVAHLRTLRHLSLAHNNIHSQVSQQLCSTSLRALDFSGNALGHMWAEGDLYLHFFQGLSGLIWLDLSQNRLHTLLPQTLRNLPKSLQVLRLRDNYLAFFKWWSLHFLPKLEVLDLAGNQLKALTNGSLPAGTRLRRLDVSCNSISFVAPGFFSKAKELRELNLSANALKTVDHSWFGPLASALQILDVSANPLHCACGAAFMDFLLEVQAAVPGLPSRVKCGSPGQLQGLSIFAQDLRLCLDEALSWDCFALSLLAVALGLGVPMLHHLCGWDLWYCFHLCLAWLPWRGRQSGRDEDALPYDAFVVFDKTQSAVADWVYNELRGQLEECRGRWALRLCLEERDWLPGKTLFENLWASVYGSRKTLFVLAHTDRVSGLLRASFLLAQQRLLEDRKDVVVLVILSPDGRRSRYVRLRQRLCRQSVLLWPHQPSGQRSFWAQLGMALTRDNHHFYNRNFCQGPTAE
Method in brief: as §1

[3] = biological target: T3, human TLR7 (Homo sapiens, UniProt Q9NYK1); assay: TLR7 inhibition reporter assay (HEK-Blue cells, SEAP reporter, gardiquimod stimulation); conditions: HEK-Blue cells overexpressing human TLR7, SEAP reporter, gardiquimod 7.5 μM
T3 construct: host or cells: HEK-Blue cells
T3 sequence (Q9NYK1 27-1049): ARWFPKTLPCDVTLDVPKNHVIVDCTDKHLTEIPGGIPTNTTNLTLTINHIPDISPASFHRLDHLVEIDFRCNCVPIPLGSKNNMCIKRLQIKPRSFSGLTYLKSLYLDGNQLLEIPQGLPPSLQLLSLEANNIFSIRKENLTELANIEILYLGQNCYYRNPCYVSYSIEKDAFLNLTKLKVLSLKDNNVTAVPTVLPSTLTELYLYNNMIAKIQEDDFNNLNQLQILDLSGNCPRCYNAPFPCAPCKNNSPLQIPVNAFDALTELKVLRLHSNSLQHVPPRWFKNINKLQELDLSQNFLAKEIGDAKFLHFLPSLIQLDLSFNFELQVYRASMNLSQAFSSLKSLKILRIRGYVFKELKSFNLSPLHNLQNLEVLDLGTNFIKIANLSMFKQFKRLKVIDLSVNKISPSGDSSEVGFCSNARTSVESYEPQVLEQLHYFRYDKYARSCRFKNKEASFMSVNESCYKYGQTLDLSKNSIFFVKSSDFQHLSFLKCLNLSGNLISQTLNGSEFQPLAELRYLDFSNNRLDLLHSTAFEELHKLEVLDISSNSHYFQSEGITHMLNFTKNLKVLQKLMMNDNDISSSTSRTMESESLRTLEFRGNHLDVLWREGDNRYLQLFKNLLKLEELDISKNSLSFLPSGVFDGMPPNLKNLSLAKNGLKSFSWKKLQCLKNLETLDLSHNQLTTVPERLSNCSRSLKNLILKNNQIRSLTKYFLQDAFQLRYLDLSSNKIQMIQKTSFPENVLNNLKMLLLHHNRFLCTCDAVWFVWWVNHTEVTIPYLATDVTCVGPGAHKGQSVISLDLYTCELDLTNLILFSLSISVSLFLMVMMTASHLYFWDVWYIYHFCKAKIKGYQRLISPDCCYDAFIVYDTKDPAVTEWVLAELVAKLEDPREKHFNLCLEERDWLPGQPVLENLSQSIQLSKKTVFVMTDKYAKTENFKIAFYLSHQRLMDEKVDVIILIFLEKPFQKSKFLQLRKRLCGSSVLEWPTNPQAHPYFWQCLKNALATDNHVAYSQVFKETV
Method in brief: as §1

| Compound | IC50 [1] | IC50 [2] | IC50 [3] |
| --- | --- | --- | --- |
| COc1cc(-c2[nH]nc(-c3ccc(C4CCN(CC(N)=O)CC4)cn3)c2C(C)C)cn2ncnc12 [Example 393] | 140 nM | > 50000 nM | 77.6 nM |
| CCN1CC(C(=O)N(C)C2CCC(c3n[nH]c(-c4cc(C)c5ncnn5c4)c3C(C)C)CC2)C1 (single isomer, unassigned) [Example 306] | 124 nM | > 50000 nM | 148 nM |
| Cc1cc(-c2[nH]nc(C(=O)N[C@H]3CC[C@@H](NC(C)C)CC3)c2C(C)C)cn2ncnc12 [Example 85] | 17.5 nM | 6910 nM | 2.66 nM |
| COc1cc(-c2[nH]nc(-c3cnc(C4CCN(CC(C)C)CC4)cn3)c2C(C)C)cn2ncnc12 [Example 379] | 22.9 nM | 28000 nM | 55.7 nM |
| Cc1cc(-c2[nH]nc(C(=O)NC3CCN(CCC(F)(F)F)CC3)c2C(C)C)cn2ncnc12 [Example 169] | 17 nM | 9810 nM | 4.17 nM |
| Cc1cc(-c2[nH]nc(-c3cnc(NC(C)C)cn3)c2C(C)C)cn2ncnc12 [Example 241] | 3.19 nM | > 50000 nM | 8.06 nM |
| Cc1cc(-c2[nH]nc(-c3nc4c(s3)CN(CC(=O)N(C)C)CC4)c2C(C)C)cn2ncnc12 [Example 275] | 515 nM | > 50000 nM | 413 nM |
| Cc1cc(-c2[nH]nc(C(=O)NC3CCN(C(C)CS(C)(=O)=O)CC3)c2C(C)C)cn2ncnc12 (stereo not drawn) [Example 174, 4-isopropyl-5-(8-methyl-[1,2,4]triazolo[1,5-a]pyridin-6-yl)-N-(1-(1-(methylsulfonyl)propan-2-yl)piperidin-4-yl)-1H-pyrazole-3-carboxamide] | 3.13 nM | 16000 nM | 1.84 nM |
| CCCN1CCC(c2ccc(-c3n[nH]c(-c4cc(OC)c5ncnn5c4)c3C(C)C)nc2)CC1 [Example 349] | 1.85 nM | > 50000 nM | 91 nM |
| Cc1cc(-c2[nH]nc(C(=O)N[C@H]3CCCN(C4COC4)C3)c2C(C)C)cn2ncnc12 [Example 166] | 0.87 nM | 383 nM | 0.88 nM |
| Cc1cc(-c2[nH]nc(C(=O)NC3CCN(CCC(C)C)CC3)c2C(C)C)cn2ncnc12 [Example 76] | 2.62 nM | 1450 nM | 0.9 nM |
| Cc1cc(-c2[nH]nc(-c3ccc(C4CCN(CC(C)(C)C)CC4)cn3)c2C(C)C)cn2ncnc12 [Example 373] | 34.5 nM | 42100 nM | 81.9 nM |
| COc1cc(-c2[nH]nc(-c3cnc(C4CCN(C)CC4)cn3)c2C(C)C)cn2ncnc12 [Example 381] | 9.06 nM | 5880 nM | 11.1 nM |
| Cc1cc(-c2[nH]nc(-c3ncc4c(n3)CCN(C3COC3)C4)c2C(C)C)cn2ncnc12 [Example 251] | 2.68 nM | 45300 nM | 10.6 nM |
| Cc1cc(-c2[nH]nc(-c3nc4c(s3)CNCC4)c2C(C)C)cn2ncnc12 [Example 218] | 18.6 nM | 35900 nM | 1.44 nM |
| COCCN1CCC(NC(=O)c2n[nH]c(-c3cc(C)c4ncnn4c3)c2C(C)C)CC1 [Example 171, 4-isopropyl-N-(1-(2-methoxyethyl)piperidin-4-yl)-5-(8-methyl-[1,2,4]triazolo[1,5-a]pyridin-6-yl)-1H-pyrazole-3-carboxamide] | 2.21 nM | 879 nM | 0.78 nM |
| Cc1cc(-c2[nH]nc(-c3ccc4c(c3)CCN(C(C)C)C4)c2C(C)C)cn2ncnc12 [Example 246] | 154 nM | > 50000 nM | 60.8 nM |

Next, values leading:

| IC50 [1] | IC50 [2] | IC50 [3] | Compound |
| --- | --- | --- | --- |
| 0.06 nM | 5300 nM | 0.61 nM | Cc1cc(-c2[nH]nc(C(=O)N[C@@H]3CCCN(C)C3)c2C(C)C)cn2ncnc12 [Example 160] |
| 1.28 nM | 16100 nM | 1.23 nM | Cc1cc(-c2[nH]nc(C(=O)NCC3CN(C)CCO3)c2C(C)C)cn2ncnc12 (stereo not drawn) [Example 134] |
| 7.36 nM | 14400 nM | 1.34 nM | CNC1CCC(NC(=O)c2n[nH]c(-c3cc(C)c4ncnn4c3)c2C(C)C)CC1 (stereo not drawn) [Example 129] |
| 2.74 nM | 43500 nM | 3.09 nM | Cc1cc(-c2[nH]nc(C(=O)N(C)CCC#N)c2C(C)C)cn2ncnc12 [Example 16] |
| 2.07 nM | 14800 nM | 4.37 nM | Cc1cc(-c2[nH]nc(C(=O)N3CCOCC3)c2C(C)C)cn2ncnc12 [Example 30] |
| 21.5 nM | > 50000 nM | 41.5 nM | Cc1cc(-c2[nH]nc(C(=O)NC3CN(C(C)C)C3)c2C(C)C)cn2ncnc12 [Example 155] |
| 0.09 nM | 10900 nM | 1.72 nM | Cc1cc(-c2[nH]nc(C(=O)NC3CN(C)C3)c2C(C)C)cn2ncnc12 [Example 156] |
| 0.48 nM | 9220 nM | 0.97 nM | Cc1cc(-c2[nH]nc(C(=O)NCC3CNC3)c2C(C)C)cn2ncnc12 [Example 49] |
